Target: T1, ABL1 H396P (Homo sapiens, UniProt P00519, H396P)
T1 construct: purchased Thermo Fisher Scientific (Life Technologies) SelectScreen
Test: SelectScreen LanthaScreen
Type: binding
Conditions: read-out: % displacement
Outline: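 Percent values come from Thermo SelectScreen profiling of NU5455, combining activity and binding assays. CSF1R was run in Z'LYTE format at Km app ATP, and CAMK1 in Adapta format with ATP listed at 10.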

Work on `CN(C(=O)CN1CCOCC1)c1ccc2sc3c(-c4cccc5c(=O)cc(N6CC7CCC(C6)O7)oc45)cccc3c2c1` [NU5455] yielded an inhibition at 1 µM of 0.6%.
